These results are taken from patent US11236122B2, “Triterpene amine derivatives” (DFH THERAPEUTICS, priority 2018, dated 2022).

In test [1] the test system is panel of HIV-1 isolates in human PBMCs. Put plainly: PBMC antiviral assay against a panel of HIV-1 isolates (RT activity). It is filed as cell-based. The protocol:
Antiviral assays. To produce HIV-1 stocks, 293T cells were transfected with WT pNL4-3 or the SP1-V7A derivative and culture supernatants were collected 24 h post transfection. RT-normalized virus supernatants were used to infect MT-4 cells at room temperature for 30 min. Cells were then cultured in the presence of serial dilutions of compounds. At 4 d post-infection, the culture supernatants were subjected to RT assay to monitor viral replication. The 50% inhibitory concentrations (IC50s) were defined as compound concentrations that reduced RT levels to 50% those measured in the absence of inhibitor (DMSO only controls) using GraphPad Prism 6 software. The IC50s in primary peripheral blood mononuclear cells (PBMCs) were calculated with a multi-clade panel of HIV-1 isolates by Southern Research Institute (Frederick, Md.). The PBMCs were stimulated with phytohemagglutinin (PHA) and IL-2 prior to use in the antiviral assays.
Virus Isolates. Compound evaluation against a panel of HIV-1 isolates were performed by the Southern Research Institute (SRI). The viruses were chosen to include one isolate from each of the seven HIV-1 Group M envelope subtypes A, B, C, D, E, F, and G, as well as isolates from HIV-1 Groups O and N. In addition, various drug resistant HIV-1 isolates were included for evaluation. The HIV-1 isolates selected include CCR5-tropic and CXCR4-tropic isolates. Unless otherwise noted, all virus isolates were obtained from the NIH AIDS Research and Reference Reagent Program. Virus isolate 1022-48 was obtained from Dr. William A. Schief of Merck Research Laboratories. MDR769 and MDR807 were obtained from Dr. Thomas C. Merigan of Stanford University. A low passage stock of each virus was prepared using fresh human PBMCs and stored in liquid nitrogen. Pre-titered aliquots of each virus were removed from the freezer and thawed rapidly to rt in a biological safety cabinet immediately before use.
Human PBMC Preparation. Fresh human PBMCs were isolated from screened donors, seronegative for HIV and HBV (Biological Specialty Corporation, Colmar, Pa.). Cells were pelleted/washed 2-3 times by low speed centrifugation and resuspension in Dulbecco's phosphate buffered saline (PBS) to remove contaminating platelets. The leukophoresed blood was then diluted 1:1 with PBS and layered over 14 mL of Ficoll-Hypaque density gradient (Lymphocyte Separation Medium, Cell Grow #85-072-CL, density 1.078+/−0.002 g/mL) in a 50 mL centrifuge tube and then centrifuged for 30 min at 600×g. Banded PBMCs were gently aspirated from the resulting interface and subsequently washed twice with PBS by low speed centrifugation. After the final wash, cells were enumerated by trypan blue exclusion and re-suspended at 1×10^6 cells/mL in RPMI 1640 supplemented with 15% Fetal Bovine Serum (FBS), 2 mM L-glutamine, 100 U/mL penicillin, […] streptomycin, and 4 μg/mL Phytohemagglutinin (PHA; Sigma, St. Louis, Mo.; cat #L1668). The cells were allowed to incubate for 48-72 h at 37° C. After incubation, PBMCs were centrifuged and resuspended in RPMI 1640 with 15% FBS, L-glutamine, penicillin, streptomycin, non-essential amino acids (MEM/NEAA; Hyclone; cat #SH30238.01), and 20 U/mL recombinant human IL-2 (R&D Systems Inc., Minneapolis, Minn.; cat #202IL). PBMCs were maintained in this medium at a concentration of 1-2×10^6 cells/mL, with twice-weekly medium changes until they were used in the assay protocol. Monocytes-derived-macrophages were depleted from the culture as the result of adherence to the tissue culture flask.
PBMC Assay. For the standard PBMC assay, PHA stimulated cells from at least two normal donors were pooled (mixed together), diluted in fresh medium to a final concentration of 1×10^6 cells/mL, and plated in the interior wells of a 96 well round bottom microplate at 50 μL/well (5×10^4 cells/well) in a standard formate developed by the Infectious Disease Research Department of the SRI. […]

Test [2] concerns HIV-1 clade B NL4-3. Put plainly: Viral infectivity assay in TZM-bl cells (luciferase), NL4-3. The format is cell-based. The following applies: DMSO = 100. The text has this:
Plasmids, tissue culture and transfections. HIV-1 clade B molecular clone NL4-3 and cade C clones K3016, ZM247 were obtained from Dr. Christina Ochsenbauer, University of Alabama, USA. Both K3016 and ZM247 were constructed using viral strains from South Africa. The HIV-1 clade C molecular clone pindieC1 was obtained from Dr. Uday Ranga, JNCASR, India. This clone was constructed using an HIV strain from India. HEK-293T and TZM-bl cells were propagated in Dulbecco's modified Eagle's medium (DM4EM) containing 10% fetal bovine serum (FBS). HUT-R5 cells were propagated in RPM 1640 medium supplemented with 10% FBS. For transfections, HEK-293T cells were grown in six well plates to about 80% confluency. Cells were transfected using Lipofectamine 2000 (invitrogen, USA) following manufacturer's recommendations. For viral replication assays, HUT-R5 T-cells were transfected using DEAE dextran as described in Waheed, A. A., Ono, A., and Freed, E. O.; Methods for the study of HIV-1 assembly; Methods Mol. Biol. Clifton N.J. 485, 163-184 (2009).
Preparation of viral stocks. Virus stocks were prepared by transfecting HEK-293T cells with HIV-1 DNAs (3 μg). 24 h post-transfection, the culture medium was replaced with fresh DMEM and incubated for another 2 h. Compounds tested were maintained in the culture throughout transfection. The culture supernatant was centrifuged at 845×g for 3 min to remove cellular debris. The clarified supernatants were filtered (pore size 0.45 µm filter disc) to remove residual cellular contaminants. For determination of viral infectivity, the un-concentrated virus was used to infect TZM-bl cells. For the CA-SP1 accumulation assay, the virus was pelleted by ultra-centrifugation at 210,100×g for 1 h at 4° C. using SW41Ti rotor (Beckman Coulter, USA).
Viral infectivity assays. The virus stocks were normalized for p24 antigen using an HIV-1 p24 Antigen Capture kit (ABL, USA). Equal amounts of virus were used to infect TZM-bl cells (5×10^4/well) in the presence of 20 μg DEAE-dextran per mL in 24 well plate. Single-round infectivity assays were performed as previously described in Checkley, M. A. et al; Reevaluation of the Requirement for TIP47 in Human Immunodeficiency Virus Type 1 Envelope Glycoprotein Incorporation; J. Virol. 87, 3561-3570 (2013). The luciferase activity in the cell lysates was measured using the Steady-Glo luciferase assay kit (Promega, USA) following manufacturer's recommendations.

Where [3] appears, read: Human immunodeficiency virus 1, IIIB, PBMC, isolate A17 (IIIB).
The mark [4] stands for this setting: Human immunodeficiency virus 1, NL43, PBMC, isolate NL4-3, PBMC.
Setting [5] is: Human immunodeficiency virus 1, NL43, PBMC, isolate NL4-3 gp41(36G) N42T, N43K, PBMC.
Setting [6] is: Human immunodeficiency virus 1, PBMC, isolate 92BR030, PBMC.
The mark [7] stands for this setting: Human immunodeficiency virus 1, PBMC, isolate 92RW009, PBMC.
The mark [8] stands for this setting: Human immunodeficiency virus 1, PBMC, isolate 92UG001, PBMC.
Where [9] appears, read: Human immunodeficiency virus 1, PBMC, isolate 93BR020, PBMC.
Setting [10] is: Human immunodeficiency virus 1, PBMC, isolate 93BR029, PBMC.
[11] abbreviates: Human immunodeficiency virus 1, PBMC, isolate 93IN101, PBMC.
Setting [12] is: Human immunodeficiency virus 1, PBMC, isolate 99UGA07412MI, PBMC.
Where [13] appears, read: Human immunodeficiency virus 1, PBMC, isolate 1022-48, PBMC.
Where [14] appears, read: Human immunodeficiency virus 1, PBMC, isolate 1064-52, PBMC.
Setting [15] is: Human immunodeficiency virus 1, PBMC, isolate 4736_4 (NL4-3), PBMC.
[16] abbreviates: Human immunodeficiency virus 1, PBMC, isolate BCF02, PBMC.
The mark [17] stands for this setting: Human immunodeficiency virus 1, PBMC, isolate CMU02, PBMC.
The mark [18] stands for this setting: Human immunodeficiency virus 1, PBMC, isolate JV1083, PBMC.
Setting [19] is: Human immunodeficiency virus 1, PBMC, isolate MDR769, PBMC.
The mark [20] stands for this setting: Human immunodeficiency virus 1, PBMC, isolate YBF30, PBMC.

One may read the IC50 as the concentration that inhibits the measured activity by half.

The structures appear in SMILES notation. Counter-ions that a name gives are not always drawn.

For `C=C(C)[C@@H]1CC[C@]2(CCNCCN3CCS(=O)(=O)CC3)CC[C@]3(C)[C@H](CC[C@@H]4[C@@]5(C)CC[C@H](OC(=O)CC(C)(C)C(=O)O)C(C)(C)[C@@H]5CC[C@]43C)[C@@H]12` [Compound 51ee, (3β)-17-[[[2-[2-(1,1-Dioxothiomorpholin-4-yl)]Ethyl]Amino]Ethyl]-28-norlup-20(29)-en-3-ol, 3-(1-Hydrogen 2,2-Dimethylbutanedioate)], the IC50 was determined as 1.4 nM in test [1] (setting [3]); 0.8 nM in test [1] (setting [4]); 1.3 nM in test [1] (setting [5]); 455 nM in test [1] (setting [6]); 20.7 nM in test [1] (setting [7]); 0.4 nM in test [1] (setting [8]). The half-inhibitory concentration (IC50) in test [1] (setting [9]) turned out to be 1.8 nM; in test [1] (setting [10]) it was 0.9 nM; in test [1] (setting [11]), 2.7 nM; in test [1] (setting [12]), 2.2 nM; in test [1] (setting [13]), 1.1 nM; in test [1] (setting [14]), 0.5 nM. Also, the IC50 was 1 nM in test [1] (setting [15]); 1.7 nM in test [1] (setting [16]); 110 nM in test [1] (setting [17]); 126 nM in test [1] (setting [18]); 1.4 nM in test [1] (setting [19]); 8.4 nM in test [1] (setting [20]). Further, the “% Relative Infectivity NL4-3 10 nM” value in test [2] came out at 15.4%. In test [2], the “% Relative Infectivity NL4-3 100 nM” value was found to be 4.4%.

With `C=C(C)[C@@H]1CC[C@]2(CCNCCN3CCN(S(C)(=O)=O)CC3)CC[C@]3(C)[C@H](CC[C@@H]4[C@@]5(C)CC[C@H](OC(=O)CC(C)(C)C(=O)O)C(C)(C)[C@@H]5CC[C@]43C)[C@@H]12` [Compound 51ff, (3β)-17-[2-[[2-[4-(Methylsulfonyl)piperazin-1-yl]ethyl]amino]ethyl]-28-norlup-20(29)-en-3-ol, 3-(1-Hydrogen 2,2-Dimethylbutanedioate)], the IC50 in test [1] (setting [3]) was 1.8 nM; in test [1] (setting [4]), 0.8 nM; in test [1] (setting [5]), 1.4 nM; in test [1] (setting [6]), over 1000 nM; in test [1] (setting [7]), 39.4 nM; in test [1] (setting [8]), under 0.15 nM. The IC50 in test [1] (setting [9]) was 2.4 nM; in test [1] (setting [10]), 1.1 nM; in test [1] (setting [11]), 14.2 nM; in test [1] (setting [12]), 4.3 nM; in test [1] (setting [13]), 1.3 nM; in test [1] (setting [14]), 0.7 nM. Moreover, the half-inhibitory concentration (IC50) in test [1] (setting [15]) came out at 0.8 nM; in test [1] (setting [16]) it was 2.8 nM; in test [1] (setting [17]) it was 217 nM; in test [1] (setting [18]), 460 nM; in test [1] (setting [19]) it was 1.7 nM; in test [1] (setting [20]), 3.6 nM. For the same molecule, in test [2], the “% Relative Infectivity NL4-3 10 nM” value was 20.1%. Besides, the “% Relative Infectivity NL4-3 100 nM” value in test [2] turned out to be 2.9%.

For the molecule `C=C(C)[C@@H]1CC[C@]2(CCNC3CCN(CCO)CC3)CC[C@]3(C)[C@H](CC[C@@H]4[C@@]5(C)CC[C@H](OC(=O)CC(C)(C)CC(=O)O)C(C)(C)[C@@H]5CC[C@]43C)[C@@H]12` [Compound 51f, (3β)-17-[2-[[1-(2-Hydroxyethyl)piperidin-4-yl]amino]ethyl]-28-norlup-20(29)-en-3-ol, 3-(Hydrogen 3,3-Dimethylpentanedioate), Bis(trifluoroacetate) Salt], the IC50 in test [1] (setting [3]) was 8.2 nM; in test [1] (setting [4]) it was 4 nM; in test [1] (setting [5]), 5.6 nM; in test [1] (setting [6]), 100 nM; in test [1] (Human immunodeficiency virus 1, PBMC, isolate 92UG031, PBMC) it was over 1000 nM; in test [1] (setting [10]), 5.1 nM. Besides, the IC50 in test [1] (setting [11]) amounted to 89 nM; in test [1] (setting [12]), 8.2 nM; in test [1] (setting [13]), 18.9 nM; in test [1] (setting [15]), 3.3 nM; in test [1] (setting [16]) it was 4.6 nM; in test [1] (setting [17]), 316 nM. Besides, the half-inhibitory concentration (IC50) in test [1] (setting [18]) is 477 nM; in test [1] (setting [19]), 5.9 nM; in test [1] (Human immunodeficiency virus 1, PBMC, isolate MDR807, PBMC), over 1000 nM; in test [1] (setting [20]), 14.8 nM.
